Experimental data as given in patent US20020132801A1, “Drospirenone for hormone replacement therapy” (Schering Aktiengesellschaft, priority 2001, published 2002).

What was measured:
Format in all cases: physicochemical
[1] = Solubility in water and aqueous buffers; conditions: water and aqueous buffers at various pH values
[2] = Chemical stability under acid and alkaline conditions
[3] = In vitro dissolution from tablet, USP XXIII Paddle Method; conditions: drospirenone in micronized form in a pharmaceutical composition; rapid dissolution defined as at least 70% over about 30 minutes from 3 mg tablet in 900 ml water at 37° C., 50 rpm
Procedure: A micronized substance is such that a test batch (ca. 200 mg) of the particles, herein drospirenone particles, has a surface area of more than 10,000 cm^2/g, and has the following particle size distribution for drospirenone as determined under the microscope: not more than 2 particles in a given batch (ca. 200 mg) with a diameter of more than 30 μm, and preferably ≦20 particles with a diameter of ≧10 μm and ≦30 μm.

C[C@]12CCC(=O)C=C1[C@@H]1C[C@@H]1[C@H]1[C@@H]3[C@@H]4C[C@@H]4[C@@]4(CCC(=O)O4)[C@@]3(C)CC[C@@H]12 [drospirenone, 6β,7β;15β;16β-dimethylene-3-oxo-17α-preg-4-ene-21,17-carbolactone]
solubility [1]: sparingly soluble | stability under acid conditions ([2]; acid conditions): rearranged to an inactive isomer | stability under alkaline conditions ([2]; alkaline conditions): hydrolysed | in vitro dissolution of active compound from composition [3]: rapid dissolution
